Source: patent US20230257396A1, “MACROCYCLES AND THEIR USE” (BLOSSOMHILL THERAPEUTICS, INC., priority 2020, published 2023)

What was measured:
Experiment in all cases: KINOMEscan kinase binding assay (Eurofins/DiscoveRx), % Ctrl
kinases [1] = molecular target: T1, kinases (Homo sapiens, UniProt P00533, L858R/T790M); settings: 1 μM; target EGFR(L858R, T790M)
T1 construct: purchased Eurofins/DiscoveRx; host or cells: E. coli BL21-derived host (T7 phage display) for most kinases; HEK-293 for the rest
Method in brief: (§1)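 Competition binding: DNA- or phage-tagged kinases (T7 phage in E. coli BL21, or HEK-293-expressed) with immobilized biotinylated ligand beads and test compound, 1 h at room temperature. Bead-bound kinase eluted and quantified by qPCR; % Ctrl = (compound − positive control)/(negative control − positive control) ×100 at a single compound concentration.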

kinases [2] = molecular target: T2, kinases (Homo sapiens, UniProt P07949, V804M); settings: 1 μM; target RET(V804M)
T2 construct: purchased Eurofins/DiscoveRx; host or cells: E. coli BL21-derived host (T7 phage display) for most kinases; HEK-293 for the rest
Method in brief: as §1

kinases [3] = molecular target: T3, kinases (Homo sapiens, UniProt P10721, L576P); settings: 1 μM; target KIT(L576P)
T3 construct: purchased Eurofins/DiscoveRx; host or cells: E. coli BL21-derived host (T7 phage display) for most kinases; HEK-293 for the rest
Method in brief: as §1

kinases [4] = molecular target: T4, kinases (Homo sapiens, UniProt P17948); settings: 1 μM; target FLT1
T4 construct: purchased Eurofins/DiscoveRx; host or cells: E. coli BL21-derived host (T7 phage display) for most kinases; HEK-293 for the rest
Method in brief: as §1

kinases [5] = molecular target: T5, kinases (Homo sapiens, UniProt P36888, D835Y); settings: 1 μM; target FLT3(D835Y)
T5 construct: purchased Eurofins/DiscoveRx; host or cells: E. coli BL21-derived host (T7 phage display) for most kinases; HEK-293 for the rest
T5 sequence (P36888 27-993 D835Y): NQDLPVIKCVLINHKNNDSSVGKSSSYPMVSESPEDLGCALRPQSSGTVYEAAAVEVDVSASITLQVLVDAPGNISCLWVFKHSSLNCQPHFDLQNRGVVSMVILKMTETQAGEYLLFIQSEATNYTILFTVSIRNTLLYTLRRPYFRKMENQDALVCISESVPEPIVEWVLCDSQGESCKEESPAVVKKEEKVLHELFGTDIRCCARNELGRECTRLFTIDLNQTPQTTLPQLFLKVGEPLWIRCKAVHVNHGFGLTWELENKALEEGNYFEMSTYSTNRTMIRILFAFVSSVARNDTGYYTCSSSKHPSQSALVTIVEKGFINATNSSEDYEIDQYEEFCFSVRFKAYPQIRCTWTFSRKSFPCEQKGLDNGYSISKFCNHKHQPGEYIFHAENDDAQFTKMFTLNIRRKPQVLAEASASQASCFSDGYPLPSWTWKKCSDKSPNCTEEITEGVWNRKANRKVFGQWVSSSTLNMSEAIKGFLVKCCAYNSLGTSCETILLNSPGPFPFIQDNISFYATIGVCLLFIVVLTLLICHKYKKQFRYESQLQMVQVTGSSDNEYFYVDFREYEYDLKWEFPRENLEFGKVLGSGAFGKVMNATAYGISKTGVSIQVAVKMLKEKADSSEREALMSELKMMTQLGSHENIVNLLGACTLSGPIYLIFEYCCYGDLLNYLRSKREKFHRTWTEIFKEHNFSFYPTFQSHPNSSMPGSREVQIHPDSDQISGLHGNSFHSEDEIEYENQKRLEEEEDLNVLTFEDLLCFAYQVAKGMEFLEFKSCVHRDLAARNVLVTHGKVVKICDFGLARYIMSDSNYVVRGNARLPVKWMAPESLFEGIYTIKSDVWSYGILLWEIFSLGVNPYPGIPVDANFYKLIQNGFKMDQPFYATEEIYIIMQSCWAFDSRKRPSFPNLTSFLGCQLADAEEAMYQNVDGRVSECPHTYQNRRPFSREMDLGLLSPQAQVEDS
Method in brief: as §1

kinases [6] = molecular target: T6, kinases (Homo sapiens, UniProt P10721, T670I/V559D); settings: 1 μM; target KIT(V559D, T670I)
T6 construct: purchased Eurofins/DiscoveRx; host or cells: E. coli BL21-derived host (T7 phage display) for most kinases; HEK-293 for the rest
Method in brief: as §1

kinases [7] = molecular target: T7, kinases (Homo sapiens, UniProt P35916); settings: 1 μM; target FLT4
T7 construct: purchased Eurofins/DiscoveRx; host or cells: E. coli BL21-derived host (T7 phage display) for most kinases; HEK-293 for the rest
Method in brief: as §1

kinases [8] = molecular target: T8, kinases (Homo sapiens, UniProt P00519, M351T); settings: 1 μM; target ABL1(M351T)-phosphorylated
T8 construct: purchased Eurofins/DiscoveRx; host or cells: E. coli BL21-derived host (T7 phage display) for most kinases; HEK-293 for the rest
Method in brief: as §1

T2 sequence (P07949 29-1114 V804M): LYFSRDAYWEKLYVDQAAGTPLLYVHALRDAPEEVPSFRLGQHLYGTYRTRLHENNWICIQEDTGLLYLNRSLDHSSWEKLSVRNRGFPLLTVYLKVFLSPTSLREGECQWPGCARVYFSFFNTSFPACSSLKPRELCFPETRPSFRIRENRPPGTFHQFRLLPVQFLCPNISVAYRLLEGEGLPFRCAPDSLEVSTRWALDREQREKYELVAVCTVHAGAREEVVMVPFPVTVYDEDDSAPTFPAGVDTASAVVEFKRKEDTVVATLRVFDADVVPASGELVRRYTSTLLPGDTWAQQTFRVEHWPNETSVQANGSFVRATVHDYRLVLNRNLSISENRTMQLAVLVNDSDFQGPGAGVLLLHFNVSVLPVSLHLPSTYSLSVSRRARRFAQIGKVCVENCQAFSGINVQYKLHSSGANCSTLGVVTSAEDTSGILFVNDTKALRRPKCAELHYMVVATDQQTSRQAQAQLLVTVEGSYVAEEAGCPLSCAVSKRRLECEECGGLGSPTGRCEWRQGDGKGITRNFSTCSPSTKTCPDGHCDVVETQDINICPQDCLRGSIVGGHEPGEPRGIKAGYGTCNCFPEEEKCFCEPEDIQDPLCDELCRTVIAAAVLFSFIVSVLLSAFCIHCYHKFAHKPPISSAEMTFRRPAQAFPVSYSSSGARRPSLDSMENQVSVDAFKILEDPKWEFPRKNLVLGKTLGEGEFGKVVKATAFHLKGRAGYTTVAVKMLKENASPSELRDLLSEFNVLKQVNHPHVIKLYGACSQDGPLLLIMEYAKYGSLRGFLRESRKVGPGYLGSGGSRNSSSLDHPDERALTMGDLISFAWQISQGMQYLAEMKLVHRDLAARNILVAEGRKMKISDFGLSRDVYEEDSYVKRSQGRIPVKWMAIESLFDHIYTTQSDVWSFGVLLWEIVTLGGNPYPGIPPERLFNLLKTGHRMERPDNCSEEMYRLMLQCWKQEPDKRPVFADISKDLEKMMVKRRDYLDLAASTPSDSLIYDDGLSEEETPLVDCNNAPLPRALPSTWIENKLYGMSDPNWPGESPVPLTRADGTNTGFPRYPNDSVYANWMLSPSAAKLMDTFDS
T6 sequence (P10721 26-976 V559D/T670I): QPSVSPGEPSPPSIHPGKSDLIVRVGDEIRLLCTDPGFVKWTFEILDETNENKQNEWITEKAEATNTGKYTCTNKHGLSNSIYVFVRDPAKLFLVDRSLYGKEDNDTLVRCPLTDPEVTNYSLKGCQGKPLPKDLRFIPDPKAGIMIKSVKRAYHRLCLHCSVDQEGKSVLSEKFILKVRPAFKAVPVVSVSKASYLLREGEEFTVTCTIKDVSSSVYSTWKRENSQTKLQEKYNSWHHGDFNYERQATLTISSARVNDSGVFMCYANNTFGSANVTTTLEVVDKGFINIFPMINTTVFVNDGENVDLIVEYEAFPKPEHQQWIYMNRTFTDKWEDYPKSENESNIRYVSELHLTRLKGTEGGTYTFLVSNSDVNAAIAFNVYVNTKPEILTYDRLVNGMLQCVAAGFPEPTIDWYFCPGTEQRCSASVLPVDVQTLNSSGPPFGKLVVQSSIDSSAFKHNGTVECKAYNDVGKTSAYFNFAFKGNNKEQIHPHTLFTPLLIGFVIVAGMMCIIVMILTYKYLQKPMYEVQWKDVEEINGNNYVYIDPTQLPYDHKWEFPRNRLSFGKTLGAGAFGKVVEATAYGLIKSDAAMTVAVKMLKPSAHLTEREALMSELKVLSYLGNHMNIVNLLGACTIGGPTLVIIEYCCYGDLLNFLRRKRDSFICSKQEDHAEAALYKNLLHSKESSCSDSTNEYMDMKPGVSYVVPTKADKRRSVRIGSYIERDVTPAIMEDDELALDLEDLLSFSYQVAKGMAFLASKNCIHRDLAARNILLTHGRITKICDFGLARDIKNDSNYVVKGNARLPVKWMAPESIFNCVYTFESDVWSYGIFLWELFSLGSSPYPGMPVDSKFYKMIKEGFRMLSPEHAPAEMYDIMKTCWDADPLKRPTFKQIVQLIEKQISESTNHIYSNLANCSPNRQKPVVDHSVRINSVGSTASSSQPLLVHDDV
T7 sequence (P35916 25-1363): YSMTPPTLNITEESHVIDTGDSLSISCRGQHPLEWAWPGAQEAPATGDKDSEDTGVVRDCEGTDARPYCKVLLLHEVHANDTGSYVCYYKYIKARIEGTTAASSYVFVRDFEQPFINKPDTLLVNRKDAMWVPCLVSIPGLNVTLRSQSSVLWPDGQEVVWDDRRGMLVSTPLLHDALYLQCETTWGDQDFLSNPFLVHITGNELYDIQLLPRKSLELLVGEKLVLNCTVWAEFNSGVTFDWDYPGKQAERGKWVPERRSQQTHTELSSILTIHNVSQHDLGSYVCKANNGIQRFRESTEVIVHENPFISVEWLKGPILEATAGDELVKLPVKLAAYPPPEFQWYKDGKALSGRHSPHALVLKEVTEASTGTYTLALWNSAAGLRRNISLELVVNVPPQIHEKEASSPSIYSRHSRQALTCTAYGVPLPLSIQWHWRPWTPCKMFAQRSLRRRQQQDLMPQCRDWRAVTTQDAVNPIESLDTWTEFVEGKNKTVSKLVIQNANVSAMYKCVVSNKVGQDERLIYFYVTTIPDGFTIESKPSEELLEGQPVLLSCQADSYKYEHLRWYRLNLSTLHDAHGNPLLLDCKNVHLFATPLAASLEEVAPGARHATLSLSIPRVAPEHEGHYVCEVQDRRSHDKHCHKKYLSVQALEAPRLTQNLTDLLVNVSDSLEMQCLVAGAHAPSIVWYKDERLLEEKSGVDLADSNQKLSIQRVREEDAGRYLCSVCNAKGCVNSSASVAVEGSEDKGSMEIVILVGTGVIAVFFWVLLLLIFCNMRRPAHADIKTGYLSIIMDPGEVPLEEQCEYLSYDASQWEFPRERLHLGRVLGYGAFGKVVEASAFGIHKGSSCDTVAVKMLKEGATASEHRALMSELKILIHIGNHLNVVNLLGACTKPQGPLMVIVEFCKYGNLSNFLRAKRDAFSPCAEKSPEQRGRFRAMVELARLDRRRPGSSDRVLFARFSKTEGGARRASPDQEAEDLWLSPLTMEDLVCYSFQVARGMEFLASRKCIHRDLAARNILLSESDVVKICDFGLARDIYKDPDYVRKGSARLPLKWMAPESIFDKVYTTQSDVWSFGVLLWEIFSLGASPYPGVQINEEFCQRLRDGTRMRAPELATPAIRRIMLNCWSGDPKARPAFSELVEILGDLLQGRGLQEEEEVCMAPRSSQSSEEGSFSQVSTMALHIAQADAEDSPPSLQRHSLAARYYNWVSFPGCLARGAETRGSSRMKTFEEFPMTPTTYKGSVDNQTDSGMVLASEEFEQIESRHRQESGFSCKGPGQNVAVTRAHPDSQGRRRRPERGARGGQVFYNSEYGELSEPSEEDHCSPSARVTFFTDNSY
T4 sequence (P17948 27-1338): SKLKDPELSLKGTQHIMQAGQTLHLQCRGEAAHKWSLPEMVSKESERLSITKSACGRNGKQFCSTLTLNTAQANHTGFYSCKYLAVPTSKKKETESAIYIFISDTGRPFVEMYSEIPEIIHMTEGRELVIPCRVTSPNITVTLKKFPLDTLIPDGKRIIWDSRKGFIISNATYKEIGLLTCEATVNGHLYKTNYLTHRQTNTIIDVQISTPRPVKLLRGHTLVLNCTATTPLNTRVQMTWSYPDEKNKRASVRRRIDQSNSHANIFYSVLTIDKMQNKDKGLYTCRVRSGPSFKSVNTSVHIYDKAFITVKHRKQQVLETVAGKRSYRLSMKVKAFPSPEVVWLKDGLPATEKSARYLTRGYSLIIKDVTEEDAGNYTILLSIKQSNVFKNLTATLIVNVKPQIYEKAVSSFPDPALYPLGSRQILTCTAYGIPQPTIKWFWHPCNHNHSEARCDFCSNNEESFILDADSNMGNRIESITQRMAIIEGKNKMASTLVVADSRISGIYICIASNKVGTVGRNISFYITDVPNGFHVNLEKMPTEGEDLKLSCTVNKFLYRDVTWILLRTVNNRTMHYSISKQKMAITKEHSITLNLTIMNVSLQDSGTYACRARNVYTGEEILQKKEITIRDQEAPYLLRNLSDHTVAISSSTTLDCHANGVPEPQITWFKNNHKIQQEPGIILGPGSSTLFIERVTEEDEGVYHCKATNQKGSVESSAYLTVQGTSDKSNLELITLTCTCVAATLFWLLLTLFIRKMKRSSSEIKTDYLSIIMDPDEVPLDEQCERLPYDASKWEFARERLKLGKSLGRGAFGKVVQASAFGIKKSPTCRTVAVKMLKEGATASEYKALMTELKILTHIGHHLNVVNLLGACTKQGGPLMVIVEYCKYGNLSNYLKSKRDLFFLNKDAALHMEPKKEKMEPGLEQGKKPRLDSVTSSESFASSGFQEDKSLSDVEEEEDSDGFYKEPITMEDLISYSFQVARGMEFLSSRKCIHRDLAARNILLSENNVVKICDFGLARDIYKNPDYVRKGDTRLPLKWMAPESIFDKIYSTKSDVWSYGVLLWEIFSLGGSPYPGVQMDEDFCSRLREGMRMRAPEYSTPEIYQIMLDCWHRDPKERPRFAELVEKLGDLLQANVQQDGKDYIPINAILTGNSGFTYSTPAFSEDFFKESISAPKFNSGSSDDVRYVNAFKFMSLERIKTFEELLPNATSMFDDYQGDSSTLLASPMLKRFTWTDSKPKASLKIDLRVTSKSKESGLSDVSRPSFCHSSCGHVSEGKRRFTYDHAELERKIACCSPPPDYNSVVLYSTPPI
T3 sequence (P10721 26-976 L576P): as the sequence (P10721 26-976 V559D/T670I) above, with D534V, L551P, I645T counted along it

% Ctrl, EGFR(L858R, T790M) (kinases [1])	% Ctrl, RET(V804M) (kinases [2])	% Ctrl, KIT(L576P) (kinases [3])	% Ctrl, FLT1 (kinases [4])	% Ctrl, FLT3(D835Y) (kinases [5])	% Ctrl, KIT(V559D, T670I) (kinases [6])	% Ctrl, FLT4 (kinases [7])	% Ctrl, ABL1(M351T)-phosphorylated (kinases [8])	Compound
80 % Ctrl	2.1 % Ctrl	0.9 % Ctrl	13 % Ctrl	0.5 % Ctrl	2.4 % Ctrl	0.2 % Ctrl	0.3 % Ctrl	CN1CCOc2cc3c(cc2Cl)NC(=O)/C3=C\c2[nH]ccc2C(=O)N(C)CC1 [Ex. 164, [16a(17)Z]-19-chloro-2,5,8-trimethyl-5,6,7,8,9,10-hexahydro-12,14-(ethanediylidene)dipyrrolo[3,2-i:3′,4′-l][1,4,7]oxadiazacyclopentadecine-4,16(1H,15H)-dione]
8.1 % Ctrl	0.1 % Ctrl	34 % Ctrl	79 % Ctrl	1.9 % Ctrl	65 % Ctrl	49 % Ctrl	3.1 % Ctrl	Cc1cc2c([nH]1)/C=C1\C(=O)Nc3ccc(cc31)-c1cnn(C)c1OCCCN(C)C2=O [Ex. 166, [3a(4)Z]-9,14-dimethyl-9,10,11,12-tetrahydro-14H-1,17-(ethanediylidene)pyrazolo[4,3-n]dipyrrolo[3,2-g:3′,4′-j][1,5]oxazacyclopentadecine-3,8(2H,5H)-dione]
37 % Ctrl	0.9 % Ctrl	0 % Ctrl	12 % Ctrl	1.6 % Ctrl	1.6 % Ctrl	0.1 % Ctrl	0.1 % Ctrl	Cc1cc2c([nH]1)/C=C1\C(=O)Nc3cc(Cl)c(cc31)SCCOCCN(C)C2=O [Ex. 169, [16a(17)Z]-19-chloro-5-methyl-6,7,9,10-tetrahydro-1H-12,14-(ethanediylidene)dipyrrolo[3,4-g:2′,3′-j][1,4,13]oxathiazacyclopentadecine-4,16(5H,15H)-dione]
3.3 % Ctrl	0.8 % Ctrl	16 % Ctrl	26 % Ctrl	0.1 % Ctrl	48 % Ctrl	1.7 % Ctrl	0.4 % Ctrl	Cc1cc2c([nH]1)/C=C1\C(=O)Nc3cnc(cc31)-c1cnn(C)c1CN(C)CCN(C)C2=O [Ex. 172, [3a(4)Z]-6,9,12,14-tetramethyl-9,10,11,12,13,14-hexahydro-17,1-(azenometheno)pyrazolo[4,3-m]dipyrrolo[3,2-f:3′,4′-i][1,4]diazacyclopentadecine-3,8(2H,5H)-dione]
